According to US12050220B2, “Cell labeling agent and cell labeling kit” (University of Miyazaki, priority 2018, dated 2024):

Legend:
[1] = Confirmation of the reactivity of BCN-ManNAc in vitro (click reaction with FAM-tetrazine, fluorescence spectra); conditions: BCN-ManNAc 200 μM, FAM-tetrazine 1 μM, PBS; time-varying measurement up to 4000 s
Method: 2.0 mg of BCN-ManNAc was dissolved in 190 μL of DMSO and 20 mM of BCN-ManNAc solution was prepared. 1.0 mg of FAM-tetrazine was dissolved in 180 μL of DMSO and […] of FAM-tetrazine solution was prepared. 89 μL of phosphate-buffered saline (PBS) was prepared in a microtube, to which 1 μL of BCN-ManNAc solution and 10 μL of FAM-tetrazine solution were added, and the mixture was stirred well in a vortex mixer. The final concentrations of BCN-ManNAc and FAM-tetrazine in the mixture are 200 μM and 1 μM, respectively.
100 μL of the mixture was reacted at 37° C. for 1.5 hours. As a control, 100 μL of the sample of BCN-ManNAc 200 μM only was prepared. The fluorescence spectra of the mixture and control were measured using a spectrophotometer (JASCO FP-8200) (λex=492 nm, λem=517 nm). To evaluate the time dependence of the reaction of BCN-ManNAc and FAM-tetrazine, the fluorescence spectra of 100 μL of the mixture were measured up to 4000 s in the time-varying measurement mode.

HeLa cells = test: Fluorescence imaging of cells (metabolic labeling, FAM-tetrazine staining, confocal microscopy); type: cell-based
Method: BCN-ManNAc was added to the medium containing 1×10^5 HeLa cells and cultured for 72 hours. The medium used was DMEM (Dulbecco's Modified Eagle's Medium) containing 10% FBS (fetal bovine serum). The final concentrations of BCN-ManNAc added to the medium were 0, 2.5, 5, 10, 20, and 25 μM. After incubation, the medium was removed and the cells were washed three times with PBS. 3.7% paraformaldehyde was added and the cells were fixed for 20 min at room temperature. A final concentration of 1 μM FAM-tetrazine was added to the plate containing the fixed cells, and the cells were incubated for 20 min at room temperature. Fluorescence measurement was performed using a confocal microscopy (Leica TCS SP8, Leica Microsystems).

acetylated BCN-modified mannosamine [BCN-ManNAc]
time at which fluorescence intensity almost reached its maximum [1]: about 1800 s | fluorescence of FAM in cells (HeLa cells; HeLa cells cultured 72 hours with 0, 2.5, 5, 10, 20, 25 μM, fixed, 1 μM FAM-tetrazine 20 min): increased in a concentration-dependent manner | fluorescence images of cells exposed to FAM-tetrazine (+) (HeLa cells; HeLa cells cultured in medium containing 25 μM, with FAM-tetrazine (+) vs without (−)): observed by fluorescence
